Key:
IgE = assay: Study 2: IgE in ISF by ELISA, effect of supplementation; format: in vivo, human
Experimental: (§1) The laser made four pores at each collection site.
(§2) The other skin analytes were measured in Study 2 using standard ELISA kits: MMP-1 (ELISA Cat # QIA55, Oncogene Research Products, Cambridge Mass.); Total IgE (ELISA Cat # RE59061, IBL, Hamburg, Germany distributed by KMI Diagnostics); Non Extraction IGF-1 (ELISA Cat # DSL-10-2800, Diagnostics Systems Laboratories, Webster Tex.); IL-1 RA (ELISA Cat # DRA00, R&D Systems, Minneapolis, Minn.); IL-1A (ELISA Cat # EH2IL1A, Pierce/Endogen, Rockford, Ill.).

IL-1A = assay: Study 2: IL-1A in ISF by ELISA, effect of supplementation; format: in vivo, human
Experimental: as §1, §2

IL-1 RA = assay: Study 2: IL-1 RA in ISF by ELISA, effect of supplementation; format: in vivo, human
Experimental: as §1, §2

MMP-1 = assay: Study 2: MMP-1 in ISF by ELISA, effect of supplementation; format: in vivo, human
Experimental: as §1, §2

[1] = parameters: species or system human; details: in vivo
Text: The studies included non-smoking, female subjects of good health over the age of 35 years and under the age 55 years with skin type of III or less by the Fitzpatrick Skin classification. […] Acceptable subjects were chronologically enrolled in the study following a randomization code describing what treatment would be applied to which dorsal forearm. […] The subject applied a blinded emulsion designated by a letter to one dorsal forearm and an alternative emulsion with a different designation to the opposite arm, twice per day, for three weeks. […] ISF was extracted from the dorsal forearm, volar upper arm, and serum at one week (“Week 2”) and three weeks after dosing (“Week 4”) and two weeks after the cessation of dosing (“Week 6”).
ISF was extracted from both the treatment site (dorsal forearm) as well as an adjacent, untreated site volar upper arm) following one week of therapy and three weeks of therapy. Subjects ended treatment at this point and returned for a final extraction two weeks later.
The ISF collection period lasted between three and six hours, typically four hours.

- Influence of topical application on levels at an adjacent, untreated site or the serum [1]: does not influence
- Level at application site two weeks after ending therapy (week six) [1]: decreased to approximate baseline values
- Response of serum level to topical therapy [1]: did not respond
Structure (SMILES): O=C1O[C@H]([C@@H](O)CO)C(O)=C1O [Vitamin C]
- Effect of vitamin C supplement on concentration of IgE in ISF (IgE): significantly increased
- Effect of vitamin C supplement on concentration of IL-1A in ISF (IL-1A): significantly increased
- Effect of vitamin C supplement on concentration of IL-1 RA in ISF (IL-1 RA): significantly increased
- Effect of vitamin C supplement on concentration of MMP-1 in ISF (MMP-1): significantly increased
- MMP-1 (log), Sun-exposed, Supplement Yes, MEAN (MMP-1; sun-exposed ISF): 0.64
- MMP-1 (log), Sun-protected, Supplement Yes, MEAN (MMP-1; sun-protected ISF): 0.91
